Key:
[1] = test system: Glomerella lagenarium (Colletotrichum lagenarium); test: Glomerella lagenarium (Colletotrichum lagenarium) / liquid culture (anthracnose); type: cell-based; conditions: Colletotrichum orbiculare, PDB liquid culture, 24° C., growth inhibition measured photometrically 3-4 days after application, vs untreated control
Protocol: (§1) Example B2: Glomerella lagenarium (Colletotrichum lagenarium)/Liquid Culture (Anthracnose) Conidia of the fungus from cryogenic storage are directly mixed into nutrient broth (PDB potato dextrose broth). After placing a (DMSO) solution of test compound into a microtiter plate (96-well format), the nutrient broth containing the fungal spores is added. The test plates are incubated at 24° C. and the inhibition of growth is measured photometrically 3-4 days after application. […] […]-49, and P-50.

[2] = test system: Monographella nivalis (Microdochium nivale); test: Monographella nivalis (Microdochium nivale) / liquid culture (foot rot cereals); type: cell-based; conditions: PDB liquid culture, 24° C., growth inhibition determined photometrically 4-5 days after application, vs untreated control
Protocol: as §1, with “B5: Monographella nivalis (Microdochium nivale)/Liquid” for “B2: Glomerella lagenarium (Colletotrichum lagenarium)/Liquid”, “(Foot Rot Cereals)” for “(Anthracnose)”, “determined” for “measured”, “4-5” for “3-4”

[3] = test system: Mycosphaerella arachidis (Cercospora arachidicola); test: Mycosphaerella arachidis (Cercospora arachidicola) / liquid culture (early leaf spot); type: cell-based; conditions: PDB liquid culture, 24° C., growth inhibition determined photometrically 4-5 days after application, vs untreated control
Protocol: Example B6: Mycosphaerella arachidis (Cercospora arachidicola)/Liquid Culture (Early Leaf Spot) Conidia of the fungus from cryogenic storage are directly mixed into nutrient broth (PDB potato dextrose broth). After placing a (DMSO) solution of test compound into a microtiter plate (96-well format), the nutrient broth containing the fungal spores is added. The test plates are incubated at 24° C. and the inhibition of growth is determined photometrically 4-5 days after application. […] […]-44, and P-48.

[4] = test system: Mycosphaerella graminicola (Septoria tritici); test: Mycosphaerella graminicola (Septoria tritici) / liquid culture (Septoria blotch); type: cell-based; conditions: Zymoseptoria tritici, PDB liquid culture, 24° C., growth inhibition determined photometrically 4-5 days after application, vs untreated control
Protocol: Example B12: Mycosphaerella graminicola (Septoria tritici)/Liquid Culture (Septoria Blotch) Conidia of the fungus from cryogenic storage are directly mixed into nutrient broth (PDB potato dextrose broth). After placing a (DMSO) solution of test compound into a microtiter plate (96-well format), the nutrient broth containing the fungal spores is added. The test plates are incubated at 24° C. and the inhibition of growth is determined photometrically 4-5 days after application. […] […]-48, and P-49.

[5] = test system: Magnaporthe grisea (Pyricularia oryzae); test: whole plant or invertebrate; type: in vivo; conditions: foliar, read-out: control of Magnaporthe grisea
[6] = test system: Blumeria graminis f. sp. tritici (Erysiphe graminis f. sp. tritici); test: Blumeria graminis f. sp. tritici / wheat / leaf disc preventative (powdery mildew on wheat); type: in vivo; conditions: foliar, wheat leaf segments cv. Kanzler, inoculated 1 day after application, assessed 6-8 days after application, vs untreated control
Protocol: Example B3: Blumeria graminis f. sp. tritici (Erysiphe graminis f. so. tritici)/Wheat/Leaf Disc Preventative (Powdery Mildew on Wheat) Wheat leaf segments cv. Kanzler are placed on agar in a multiwell plate (24-well format) and sprayed with the formulated test compound diluted in water. The leaf disks are inoculated by shaking powdery mildew infected plants above the test plates 1 day after application. The inoculated leaf disks are incubated at 20°° C. and 60% rh under a light regime of 24 h darkness followed by 12 h light/12 h darkness in a climate chamber and the activity of a compound is assessed as percent disease control compared to untreated when an appropriate level of disease damage appears on untreated check leaf segments (6-8 days after application). […]-45, and P-50.

Alternaria solani = Alternaria solani / tomato / leaf disc (early blight); type: in vivo; conditions: foliar, tomato leaf disks cv. Baby, inoculated 2 days after application, assessed 5-7 days after application, vs untreated control
Protocol: Example B1: Alternaria solani/Tomato/Leaf Disc (Early Blight) Tomato leaf disks cv. Baby are placed on agar in multiwell plates (24-well format) and sprayed with the formulated test compound diluted in water. The leaf disks are inoculated with a spore suspension of the fungus 2 days after application. The inoculated leaf disks are incubated at 23° C./21° C. […] […]-43, and P-44.

COc1ncc(NC2CCCC2)nc1C(=O)NC1CCC1(C)C (stereo not drawn) [Compound P-1, 6-(cyclopentylamino)-N-(2,2-dimethylcyclobutyl)-3-methoxy-pyrazine-2-carboxamide]
≥ 80%: inhibition of growth at 20 ppm [1] | inhibition of growth at 20 ppm [2] | inhibition of growth at 20 ppm [3] | inhibition of growth at 20 ppm [4]

COc1ncc(Nc2cc(F)cc(F)c2)nc1C(=O)NC1CCN(c2cccc(OC(F)(F)F)c2)C1=O (stereo not drawn) [Compound P-6, 6-(3,5-difluoroanilino)-3-methoxy-N-[2-oxo-1-[3-(trifluoromethoxy)phenyl]pyrrolidin-3-yl]pyrazine-2-carboxamide]
≥ 80%: inhibition of growth at 20 ppm [1] | inhibition of growth at 20 ppm [2] | pest or weed control at 200 ppm [5]

COc1ncc(NCC(C)(C)O)nc1C(=O)NC1CCC1(C)C (stereo not drawn) [Compound P-8, N-(2,2-dimethylcyclobutyl)-6-[(2-hydroxy-2-methyl-propyl)amino]-3-methoxy-pyrazine-2-carboxamide]
≥ 80%: inhibition of growth at 20 ppm [1] | pest or weed control at 200 ppm [6] | inhibition of growth at 20 ppm [2]

COc1ncc(Nc2cnsc2)nc1C(=O)NCc1ccc(Oc2ccccc2)cc1 [Compound P-13, 6-(isothiazol-4-ylamino)-3-methoxy-N-[(4-phenoxyphenyl)methyl] pyrazine-2-carboxamide]
≥ 80%: pest or weed control at 200 ppm (Alternaria solani) | inhibition of growth at 20 ppm [1] | inhibition of growth at 20 ppm [2] | inhibition of growth at 20 ppm [3] | pest or weed control at 200 ppm [5] | inhibition of growth at 20 ppm [4]

COc1ncc(Nc2cnsc2)nc1C(=O)NC1CCc2ccc(C(F)(F)F)cc21 (stereo not drawn) [Compound P-14, 6-(isothiazol-4-ylamino)-3-methoxy-N-[6-(trifluoromethyl)indan-1-yl]pyrazine-2-carboxamide]
≥ 80%: inhibition of growth at 20 ppm [1] | inhibition of growth at 20 ppm [2] | pest or weed control at 200 ppm [5] | inhibition of growth at 20 ppm [4]

COc1ncc(Nc2cc(F)cc(F)c2)nc1C(=O)NC1C2CCOC2C1(C)C (stereo not drawn) [Compound P-16, 6-(3,5-difluoroanilino)-N-(7,7-dimethyl-2-oxabicyclo[3.2.0]heptan-6-yl)-3-methoxy-pyrazine-2-carboxamide]
≥ 80%: pest or weed control at 200 ppm (Alternaria solani) | inhibition of growth at 20 ppm [1] | pest or weed control at 200 ppm [6] | inhibition of growth at 20 ppm [2] | inhibition of growth at 20 ppm [3] | pest or weed control at 200 ppm [5] | inhibition of growth at 20 ppm [4]

COc1ncc(Nc2cc(F)cc(F)c2)nc1C(=O)NCC1(c2ccc(C(F)(F)F)cn2)CC1 [Compound P-19, 6-(3,5-difluoroanilino)-3-methoxy-N-[[1-[5-(trifluoromethyl)-2-pyridyl]cyclopropyl]methyl]pyrazine-2-carboxamide]
≥ 80%: inhibition of growth at 20 ppm [1] | inhibition of growth at 20 ppm [2] | pest or weed control at 200 ppm [5]

COc1ncc(Nc2cc(F)cc(F)c2)nc1C(=O)NCC1(C)CCOC1 (stereo not drawn) [Compound P-21]
≥ 80%: inhibition of growth at 20 ppm [1] | pest or weed control at 200 ppm [6] | inhibition of growth at 20 ppm [2] | pest or weed control at 200 ppm [5] | inhibition of growth at 20 ppm [4]

COc1ncc(Nc2cc(F)cc(F)c2)nc1C(=O)NCc1c(Cl)cncc1Cl [Compound P-23, N-[(3.5-dichloro-4-pyridyl)methyl]-6-(3,5-difluoroanilino)-3-methoxy-pyrazine-2-carboxamide]
≥ 80%: inhibition of growth at 20 ppm [1] | pest or weed control at 200 ppm [5]

COc1ncc(Nc2cc(F)cc(F)c2)nc1C(=O)NC1COC(C2CC2)C1 (stereo not drawn) [Compound P-24, N-(5-cyclopropyltetrahydrofuran-3-yl)-6-(3,5-difluoroanilino)-3-methoxy-pyrazine-2-carboxamide]
≥ 80%: inhibition of growth at 20 ppm [1] | pest or weed control at 200 ppm [6] | inhibition of growth at 20 ppm [2] | inhibition of growth at 20 ppm [3] | inhibition of growth at 20 ppm [4]

COc1ncc(Nc2cc(F)cc(F)c2)nc1C(=O)NCC1COc2ccccc21 (stereo not drawn) [Compound P-26, 6-(3,5-difluoroanilino)-N-(2,3-dihydrobenzofuran-3-yimethyl)-3-methoxy-pyrazine-2-carboxamide]
≥ 80%: inhibition of growth at 20 ppm [1] | pest or weed control at 200 ppm [5]

COc1ncc(Nc2cc(F)cc(F)c2)nc1C(=O)NC1CC2CCOC21 (stereo not drawn) [Compound P-28, 6-(3,5-difluoroanilino)-3-methoxy-N-(2-oxabicyclo[3.2.0]heptan-7-yl)pyrazine-2-carboxamide]
≥ 80%: pest or weed control at 200 ppm (Alternaria solani) | inhibition of growth at 20 ppm [1] | pest or weed control at 200 ppm [6] | pest or weed control at 200 ppm [5]

COc1ncc(Nc2cc(F)cc(F)c2)nc1C(=O)NCc1ccc(Oc2ccccc2)cc1 [Compound P-30]
≥ 80%: pest or weed control at 200 ppm (Alternaria solani) | inhibition of growth at 20 ppm [1] | pest or weed control at 200 ppm [6] | inhibition of growth at 20 ppm [2] | inhibition of growth at 20 ppm [3] | pest or weed control at 200 ppm [5] | inhibition of growth at 20 ppm [4]

COc1ncc(Nc2cc(F)nc(F)c2)nc1C(=O)NCC1(C(F)(F)F)CC1 [Compound P-35, 6-[(2,6-difluoro-4-pyridyl)amino]-3-methoxy-N-[[1-(trifluoromethyl)cyclopropyl]methyl] pyrazine-2-carboxamide]
≥ 80%: inhibition of growth at 20 ppm [1] | pest or weed control at 200 ppm [6] | pest or weed control at 200 ppm [5]

COc1ncc(Nc2cc(F)nc(F)c2)nc1C(=O)NCc1ccc(Oc2ccccc2)cc1 [Compound P-36, 6-[(2,6-difluoro-4-pyridyl)amino]-3-methoxy-N-[(4-phenoxyphenyl)methyl]pyrazine-2-carboxamide]
≥ 80%: inhibition of growth at 20 ppm [1] | pest or weed control at 200 ppm [5]

COc1ncc(Nc2cnsc2)nc1C(=O)NC1CCC1(C)C (stereo not drawn) [Compound P-42, (isothiazol-4-ylamino)-N-(2,2-dimethylcyclobutyl)-6-3-methoxy-pyrazine-2-carboxamide]
≥ 80%: inhibition of growth at 20 ppm [2] | pest or weed control at 200 ppm [5] | inhibition of growth at 20 ppm [4]

Cc1ncc(Nc2cc(F)cc(F)c2)nc1C(=O)NC1CCC1(C)C (stereo not drawn) [Compound P-47, 6-(3,5-difluoroanilino)-N-(2,2-dimethylcyclobutyl)-3-methyl-pyrazine-2-carboxamide]
≥ 80%: inhibition of growth at 20 ppm [1] | inhibition of growth at 20 ppm [2] | pest or weed control at 200 ppm [5]

CC1(NC(=O)c2cncc(Nc3cc(F)cc(F)c3)n2)CCCC1 [Compound P-48, 6-(3,5-difluoroanilino)-N-(1-methylcyclopentyl) pyrazine-2-carboxamide]
≥ 80%: inhibition of growth at 20 ppm [1] | inhibition of growth at 20 ppm [2] | inhibition of growth at 20 ppm [3] | inhibition of growth at 20 ppm [4]

CC1(NC(=O)c2cncc(Nc3cc(F)nc(F)c3)n2)CCCC1 [Compound P-49, 6-[(2,6-difluoro-4-pyridyl)amino]-N-(1-methylcyclopentyl) pyrazine-2-carboxamide]
≥ 80%: inhibition of growth at 20 ppm [1] | inhibition of growth at 20 ppm [2] | pest or weed control at 200 ppm [5] | inhibition of growth at 20 ppm [4]

Cc1ncc(Nc2cc(F)nc(F)c2)nc1C(=O)NC1CCC1(C)C (stereo not drawn) [Compound P-50, 6-[(2,6-difluoro-4-pyridyl)amino]-N-(2,2-dimethylcyclobutyl)-3-methyl-pyrazine-2-carboxamide]
≥ 80%: inhibition of growth at 20 ppm [1] | pest or weed control at 200 ppm [6] | inhibition of growth at 20 ppm [2] | pest or weed control at 200 ppm [5]
